Measurements reported in patent US20120178147A1, “MICROBIAL CULTURES AND METHODS FOR ANAEROBIC BIOREMEDIATION” (priority 2009, published 2012).

Tests used:
general bacteria = test: qRT-PCR of general bacteria 16S rRNA genes in BDI cultures; format: cell-based; details: BDI with 1.5 μM TCC or 35 μM TCS
Experimental: Quantitative real-time PCR (qRT-PCR) was performed for enumeration of general 16S rRNA genes and Dehalococcoides 16S rRNA genes in culture DehaloR̂2 and Bio-Dechlor INOCULUM. The primers used for general 16S rRNA genes were Bac1055F (5′-ATG GYT GTC GTC ACCT-3′) and Bac1392R (5′-ACG GGC GGT GTG TAC-3′) (Ritalahti et al., 2006), and the probe was Bac16sTaq (FAM-CAA CGA GCG CAA CCC/3-BHQ-1/). The final volume of PCR reactions was 10 μL, and the final concentration of each chemical in a single reaction tube was: 1× RealMasterMix (Fisher Scientific, Pittsburgh, Pa.), 300 nM Probe, 300 nM each Primer, and 130 nM DNA samples. The PCR conditions were as follows: 2 min at 95° C. followed by 40 cycles of 10 s at 95° C., 20 s at 56° C. and 20 s at 68° C. The primers used for Dehalococcoides 16S rRNA genes were Dhc1200F (5′-CTGGAGCTAATCCCCAAAGCT-3′) and Dhc1271R (5′-CAA CTT CAT GCA GGC GGG-3′), and the probe was Dhc1240Pr (FAM-TCCTCAGTTCGGATTGCAGGC TGAA/3-BHQ-1) (He et al., 2003b). The final volume of PCR reactions was 10 μL, and the final concentration of each chemical in a single reaction tube was: 1× RealMasterMix (Fisher Scientific, Pittsburgh, Pa.), 200 nM Probe, 700 nM each Primer, and 130 nM DNA samples. The PCR conditions were as follows: 2 min at 95° C. followed by 40 cycles of 15 s at 95° C., 20 s at 58° C. and 20 s at 68° C.
Quantitative Real time PCR (qRT-PCR) was carried out in a spectrofluorimetric thermal cycler (Master cycler, epgradient S, Eppendorf). Calibration curves were performed in triplicate and a linear range of 6 orders of magnitude was obtained. Plasmids containing Dehalococcoides strain BAV1 16S rRNA genes were used as standards to construct general 16S rRNA genes and Dehalococcoides 16S rRNA genes calibration curves. The slopes of the calibration curves for general 16S rRNA genes and Dehalococcoides 16S rRNA genes were −3.46 and −3.94, and the Y intercepts were 38 and 44.2, respectively.
DNA Extraction and Quantitative Real-Time PCR. The BDI cultures and DehaloR^2 cultures were shaken vigorously first and then 10 ml of the mixed liquid was removed with a sterile syringe and dispensed into 10 1.5 ml micro centrifuge tubes. These micro centrifuge tubes were then centrifuged at 13,000 rpm for 15 min in order to make a pellet, and the pellet was used for DNA extraction. Qiagen DNeasy Blood & Tissue Kit with modifications to enhance lysis was used for DNA isolation from cultures. DNA samples were stored at −20° C.
Quantitative real-time PCR (qRT-PCR) was performed for enumeration of general 16S rRNA genes and Dehalococcoides 16S rRNA genes in BDI culture without TCC&TCS, BDI culture with 1.5 μM TCC, BDI culture with 35 μM TCS, D DehaloR̂2 culture without TCC&TCS, DehaloR^2 culture with 1.5 μM TCC and DehaloR̂2^2 culture with 35 μM TCS. […]

[1] = at 25° C.; cited from earlier work

SMILES | General bacteria 16S rRNA gene copies, day 27 (general bacteria) | General bacteria 16S rRNA gene copies, initial (general bacteria) | Vapor pressure [1]
O=C(Nc1ccc(Cl)cc1)Nc1ccc(Cl)c(Cl)c1 [TCC, 3-(4-chlorophenyl)-1-(3,4-dichlorphenyl) urea] | 1.4×10^8 gene copies/ml | 7.2×10^7 gene copies/ml | 3.61 × 10^−9 mm Hg
Oc1cc(Cl)ccc1Oc1ccc(Cl)cc1Cl [TCS, 5-chloro-2-[2,4-dichloro-phenoxy]-phenol] | 3.3×10^8 gene copies/ml | 1.0×10^8 gene copies/ml | 4.65 × 10^−6 mm Hg
